# Source: ChEMBL document CHEMBL4308864, “Targeting tyrosine kinase: Development of acridone - pyrrole - oxindole hybrids against human breast cancer” (2019)
# Legend:
# Type in all cases: functional
# MDA-MB-468 = assay: Growth inhibition of human MDA-MB-468 cells at 10^-5 M incubated for 48 hrs by sulforhodamine B assay relative to control; conditions: MDA-MB-468, 48 h, read-out: GI
# MCF7 = assay: Growth inhibition of human MCF7 cells at 10^-5 M incubated for 48 hrs by sulforhodamine B assay relative to control; conditions: MCF7, 48 h, read-out: GI
# T47D = assay: Growth inhibition of human T47D cells at 10^-5 M incubated for 48 hrs by sulforhodamine B assay relative to control; conditions: read-out: GI
structure (smiles),measurement,setting,value
O=C1/C(=C\c2cccn2Cc2ccccc2)c2ccccc2N1c1c(Cl)cccc1Cl,inhibition of growth at 10 µM,MDA-MB-468,100%
same,inhibition of growth at 10 µM,MCF7,93%
same,inhibition of growth at 10 µM,T47D,100%
